Among the test systems are Malme-3M; HCT-116; SF-539; KM12; SK-MEL-28; NCI-H460; M14; SN12C; NCI-H226; A549; U-251; HCC 2998; NCI-H522; OVCAR-8; 786-0; SK-OV-3; Hs-578T; MCF7; MDA-MB-231.
What all share (experiment): growth of human tumour cells (NCI), 48 h

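Briefly, cells in 96-well plates were exposed to five compound concentrations for 48 h, and endpoints were estimated by linear interpolation. The concentration for 50% growth inhibition is given as GI50.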 Active and inactive are the calls of the source. No stated cut-off is given here; in the data, active = GI50 up to about 1.1 µM and inactive = higher.

With `NC1=C(Br)C(=O)c2ncccc2C1=O`, the GI50 is 0.466 µM (active) with Malme-3M; 0.22 µM (active) in the assay on HCT-116; 0.189 µM (active) in the assay with SF-539; 1.12 µM (active) in the assay with KM12; 0.34 µM (active) in the assay with SK-MEL-28; 0.393 µM (active) in the assay with NCI-H460. For the same compound, the GI50 was 0.673 µM (active) with M14; 0.815 µM (active) with SN12C; 1.69 µM (inactive) in the assay with NCI-H226; 0.855 µM (active) with A549; 0.177 µM (active) with U-251; 1.11 µM (active) in the assay on HCC 2998. The GI50 in the assay on NCI-H522 is 0.321 µM (active); in the assay on OVCAR-8, 0.531 µM (active); in the assay on 786-0, 1.51 µM (inactive); in the assay with SK-OV-3, 1.81 µM (inactive).

`COc1ccc(-n2nnnc2C2(Nc3ccccc3)CCN(Cc3ccccc3)CC2)cc1`: the GI50 with Hs-578T is 4.51 µM (inactive); with MCF7, 7.73 µM (inactive); in the assay with Malme-3M it was 13.4 µM (inactive); in the assay on HCT-116 it was 7.8 µM (inactive); with SF-539, 16.4 µM (inactive); in the assay on KM12 it was 3.77 µM (inactive). For the same compound, the GI50 was 13.5 µM (inactive) with SK-MEL-28; 10.4 µM (inactive) with MDA-MB-231; 11.2 µM (inactive) in the assay on NCI-H460; 14.2 µM (inactive) in the assay with M14; 7.29 µM (inactive) in the assay on SN12C; 25.2 µM (inactive) in the assay with NCI-H226. Besides, the GI50 in the assay with A549 was 14.2 µM (inactive); with U-251, 16.4 µM (inactive); with HCC 2998, 3.93 µM (inactive); in the assay on OVCAR-8 it was 19 µM (inactive); in the assay with 786-0 it was 13.6 µM (inactive); with SK-OV-3 it was 13.6 µM (inactive).

As to `COc1ccc(/C(Cl)=C(\C=N/O)c2ccc(OC)c(OC)c2)cc1OC`, the GI50 in the assay on Malme-3M, with HCT-116, in the assay with SF-539, in the assay on KM12, with SK-MEL-28 and in the assay on NCI-H460 was > 100 µM (inactive) each time. Moreover, the GI50 in the assay on M14 is 51.3 µM (inactive); in the assay on SN12C, > 100 µM (inactive); in the assay with NCI-H226, > 100 µM (inactive); with A549, > 100 µM (inactive); in the assay on U-251, > 100 µM (inactive); in the assay with HCC 2998 it was > 100 µM (inactive). Also, the GI50 with NCI-H522, in the assay with OVCAR-8, in the assay on 786-0 and in the assay with SK-OV-3 was > 100 µM (inactive) throughout.

In the case of `Nc1nc(SCCNC(=O)CCc2ccc(O)cc2)nc2c1ncn2C1OC(CO)C(O)C1O` (stereo unspecified), the GI50 in the assay on Malme-3M, in the assay with HCT-116, with SF-539, with KM12, in the assay with SK-MEL-28 and with NCI-H460 was > 203 µM (inactive) throughout. Further, the GI50 in the assay with M14, with SN12C, in the assay on NCI-H226, with A549, in the assay on U-251 and in the assay on HCC 2998 was > 203 µM (inactive) throughout. In addition, the GI50 in the assay with NCI-H522, in the assay with OVCAR-8, with 786-0 and in the assay on SK-OV-3 was > 203 µM (inactive) in each case.

Turning to `O=C1C2=C(c3ccccc31)C(c1ccc(F)cc1)N1C(=O)CCSC1=N2` (stereo unspecified), the GI50 in the assay on Malme-3M was > 100 µM (inactive); in the assay on HCT-116, 95.7 µM (inactive); in the assay with SF-539, > 100 µM (inactive); in the assay with KM12, 55.1 µM (inactive); with SK-MEL-28, > 100 µM (inactive); in the assay on NCI-H460, > 100 µM (inactive). Moreover, the GI50 in the assay on M14 was > 100 µM (inactive); in the assay with SN12C it was 42.9 µM (inactive); in the assay on NCI-H226, 93.3 µM (inactive); in the assay on A549, > 100 µM (inactive); in the assay with U-251, > 100 µM (inactive); in the assay on HCC 2998, > 100 µM (inactive). Moreover, the GI50 in the assay with NCI-H522 is 72.8 µM (inactive); in the assay with OVCAR-8 it was > 100 µM (inactive); in the assay with 786-0, > 100 µM (inactive); with SK-OV-3, > 100 µM (inactive).

Regarding `Cc1ccc(S(=O)(=O)N2CCC2c2ccccc2)cc1` (stereo unspecified), the GI50 in the assay with Malme-3M was > 100 µM (inactive); in the assay on HCT-116 it was 52.8 µM (inactive); with SF-539 it was > 100 µM (inactive); with KM12, 82 µM (inactive); with SK-MEL-28, > 100 µM (inactive); with NCI-H460, > 100 µM (inactive). In addition, the GI50 in the assay with M14 is > 100 µM (inactive); in the assay with SN12C, > 100 µM (inactive); in the assay on NCI-H226, 28.6 µM (inactive); with A549 it was 67.5 µM (inactive); in the assay with U-251, > 100 µM (inactive); in the assay with HCC 2998, > 100 µM (inactive). The GI50 is 74 µM (inactive) in the assay with NCI-H522, > 100 µM (inactive) in the assay on OVCAR-8, > 100 µM (inactive) in the assay on 786-0 and > 100 µM (inactive) in the assay on SK-OV-3.

On to `CN(Cc1cnc2nc(N)nc(N)c2n1)c1ccc(C(=O)NC23CC4CC(CC(C4)C2)C3)cc1`, for which the GI50 in the assay on Hs-578T was 12.9 µM (inactive); in the assay with MCF7, 10.9 µM (inactive); in the assay with Malme-3M it was 6.85 µM (inactive); with HCT-116 it was 4.01 µM (inactive); in the assay on KM12, 12.3 µM (inactive); in the assay on MDA-MB-231 it was 14.1 µM (inactive). Moreover, the GI50 in the assay with NCI-H460 was 5.96 µM (inactive); in the assay on M14, 4.14 µM (inactive); with SN12C it was 20.4 µM (inactive); in the assay on NCI-H226, 13.1 µM (inactive); in the assay on U-251, 12 µM (inactive); in the assay on OVCAR-8, 7.35 µM (inactive). The GI50 with 786-0 is 7.24 µM (inactive); with SK-OV-3, 15.2 µM (inactive).

For `O=c1c2ccccc2c2c3c1cccc3c1cccc3c(=O)c4ccccc4c2c31`, the GI50 in the assay with Malme-3M, in the assay with HCT-116, with SF-539, in the assay on KM12, with SK-MEL-28 and in the assay with NCI-H460 was > 100 µM (inactive) throughout. Also, the GI50 in the assay with M14, in the assay with SN12C, with NCI-H226, in the assay with A549, with U-251 and in the assay on HCC 2998 was > 100 µM (inactive) in each case. Further, the GI50 in the assay on NCI-H522, in the assay with OVCAR-8, in the assay with 786-0 and in the assay on SK-OV-3 was > 100 µM (inactive) each time.

Take `CC(NC1=NCCO1)c1cccs1` (stereo unspecified): the GI50 with Hs-578T was 17.8 µM (inactive); with MCF7, 22.7 µM (inactive); with Malme-3M it was 21.4 µM (inactive); in the assay on HCT-116, 20 µM (inactive); in the assay on KM12, 15.7 µM (inactive); in the assay with SK-MEL-28 it was 23.1 µM (inactive). Moreover, the GI50 was 76.7 µM (inactive) in the assay on MDA-MB-231; 28.8 µM (inactive) in the assay with NCI-H460; 18.2 µM (inactive) in the assay on M14; 60.7 µM (inactive) with SN12C; 46.8 µM (inactive) with NCI-H226; 52.8 µM (inactive) with A549. Moreover, the GI50 was 18.1 µM (inactive) in the assay on U-251; 17.7 µM (inactive) with HCC 2998; 41 µM (inactive) in the assay with OVCAR-8; 17.1 µM (inactive) in the assay on 786-0; 57.9 µM (inactive) in the assay with SK-OV-3.

On to `COC(=O)C1=C(C)NC(C)=C(C(=O)OC)C1c1nc2sccn2c1[N+](=O)[O-]`, for which the GI50 with Hs-578T was > 100 µM (inactive); in the assay on MCF7, > 100 µM (inactive); in the assay on HCT-116 it was > 100 µM (inactive); in the assay with SF-539 it was 77.3 µM (inactive); with KM12, > 100 µM (inactive); with SK-MEL-28 it was > 100 µM (inactive). For the same compound, the GI50 in the assay with MDA-MB-231, with NCI-H460, in the assay with M14, in the assay with SN12C, in the assay with NCI-H226 and in the assay with A549 was > 100 µM (inactive) throughout. In addition, the GI50 with U-251 was > 100 µM (inactive); with HCC 2998 it was > 100 µM (inactive); in the assay with OVCAR-8 it was 79.4 µM (inactive); in the assay with 786-0, > 100 µM (inactive); in the assay on SK-OV-3 it was > 100 µM (inactive).

As to `O=C(/C=C/c1c(O)ccc2ccccc12)c1ccc([N+](=O)[O-])cc1`, the GI50 was 22.9 µM (inactive) in the assay on Malme-3M; 19.3 µM (inactive) with HCT-116; 37.8 µM (inactive) in the assay on SF-539; 67.1 µM (inactive) in the assay with KM12; 30.1 µM (inactive) in the assay with SK-MEL-28; 46.9 µM (inactive) in the assay on NCI-H460. In addition, the GI50 in the assay on M14 is 19.8 µM (inactive); in the assay on SN12C, 20 µM (inactive); with NCI-H226, > 100 µM (inactive); with A549, > 95.9 µM (inactive); in the assay with U-251, 46.5 µM (inactive); with HCC 2998 it was 97.9 µM (inactive). Also, the GI50 in the assay with NCI-H522 was 17 µM (inactive); in the assay on OVCAR-8, 37.2 µM (inactive); with 786-0 it was 24.5 µM (inactive); in the assay on SK-OV-3 it was > 100 µM (inactive).

With `COc1ccc(/C=C/[N+](=O)[O-])cc1`, the GI50 in the assay with Hs-578T was 3.05 µM (inactive); in the assay with MCF7, 2.02 µM (inactive); with Malme-3M it was 19.1 µM (inactive); in the assay on HCT-116 it was 6.67 µM (inactive); with SF-539, 1.66 µM (inactive); in the assay with KM12, 3.18 µM (inactive). Besides, the GI50 in the assay on SK-MEL-28 was 5.81 µM (inactive); in the assay on MDA-MB-231, 19.4 µM (inactive); with NCI-H460, 6.9 µM (inactive); in the assay with M14, 2.79 µM (inactive); with SN12C, 16.3 µM (inactive); in the assay on NCI-H226 it was 3.6 µM (inactive). Besides, the GI50 in the assay with A549 is 2.51 µM (inactive); in the assay with U-251 it was 4.03 µM (inactive); in the assay on HCC 2998 it was < 0.01 µM (active); in the assay on NCI-H522, 20.4 µM (inactive); in the assay on OVCAR-8, 2.67 µM (inactive); in the assay with 786-0 it was 3.75 µM (inactive).

The record behind these values is ChEMBL document CHEMBL1201862, “PubChem BioAssay data set” (2004).
